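Briefly, cells in 96-well plates were exposed to five compound concentrations for 48 h, and endpoints were estimated by linear interpolation. At the GI50, growth is halved. TGI denotes the concentration required for complete inhibition of growth.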
Columns and labels:
Experiment in all cases: NCI anticancer screen, dose series, 48 h
786-0 renal = system: 786-0 renal
A498 renal = system: A498 renal
A549 NSCLC = system: A549 NSCLC
ACHN renal = system: ACHN renal
CAKI-1 renal = system: CAKI-1 renal
COLO 205 colon = system: COLO 205 colon
DU-145 prostate = system: DU-145 prostate
EKVX NSCLC = system: EKVX NSCLC
HCC-2998 colon = system: HCC-2998 colon
HCT-116 colon = system: HCT-116 colon
HCT-15 colon = system: HCT-15 colon
HL-60(TB) leukemia = system: HL-60(TB) leukemia
HOP-62 NSCLC = system: HOP-62 NSCLC
HOP-92 NSCLC = system: HOP-92 NSCLC
HS 578T breast = system: HS 578T breast
HT29 colon = system: HT29 colon
IGROV1 ovarian = system: IGROV1 ovarian
K-562 leukemia = system: K-562 leukemia
KM12 colon = system: KM12 colon
LOX IMVI melanoma = system: LOX IMVI melanoma
M14 melanoma = system: M14 melanoma
MALME-3M melanoma = system: MALME-3M melanoma
MCF7 breast = system: MCF7 breast
MDA-MB-231 breast = system: MDA-MB-231 breast
MDA-MB-435 = system: MDA-MB-435
MOLT-4 leukemia = system: MOLT-4 leukemia
NCI-H226 lung = system: NCI-H226 lung
NCI-H23 lung = system: NCI-H23 lung

Compound `O=C1/C(=C/c2ccc(Cl)cc2)N=C(c2ccccc2)N1c1cc(C(F)(F)F)ccc1Cl` has a GI50 (786-0 renal) of 14.4 µM, a TGI (786-0 renal) of 50.6 µM and a GI50 (A498 renal) of 36.7 µM. For the same compound, the TGI (A498 renal) was > 100 µM, the GI50 (A549 NSCLC) was 24.2 µM and the TGI (A549 NSCLC) was > 100 µM. For the same compound, the GI50 (ACHN renal) was 22.1 µM, the TGI (ACHN renal) was > 100 µM and the GI50 (CAKI-1 renal) was 31 µM. For the same compound, the TGI (CAKI-1 renal) was 69.5 µM, the GI50 (COLO 205 colon) was 17.5 µM and the TGI (COLO 205 colon) was 40.7 µM. For the same compound, the GI50 (DU-145 prostate) was 31.2 µM, the TGI (DU-145 prostate) was > 100 µM and the GI50 (EKVX NSCLC) was 21.9 µM. For the same compound, the TGI (EKVX NSCLC) was > 100 µM, the GI50 (HCC-2998 colon) was 27.5 µM and the TGI (HCC-2998 colon) was 87 µM. For the same compound, the GI50 (HCT-116 colon) was 16.8 µM, the TGI (HCT-116 colon) was 48.3 µM and the GI50 (HCT-15 colon) was 18.9 µM. The TGI (HCT-15 colon) was 86.6 µM, the GI50 (HL-60(TB) leukemia) was 16.9 µM and the TGI (HL-60(TB) leukemia) was 42.7 µM. The GI50 (HOP-62 NSCLC) was 15 µM, the TGI (HOP-62 NSCLC) was 42.8 µM and the GI50 (HOP-92 NSCLC) was 20.3 µM. The TGI (HOP-92 NSCLC) was 58.5 µM, the GI50 (HS 578T breast) was 21.4 µM and the TGI (HS 578T breast) was 66.5 µM. The GI50 (HT29 colon) was 24.1 µM, the TGI (HT29 colon) was 73.5 µM and the GI50 (IGROV1 ovarian) was 18.5 µM. For the same compound, the TGI (IGROV1 ovarian) was 85.7 µM, the GI50 (K-562 leukemia) was 20.1 µM and the TGI (K-562 leukemia) was 79.9 µM. It also gave a GI50 (KM12 colon) of 21.9 µM, a TGI (KM12 colon) of 84 µM and a GI50 (LOX IMVI melanoma) of 16.5 µM. The TGI (LOX IMVI melanoma) was 41.2 µM, the GI50 (M14 melanoma) was 22 µM and the TGI (M14 melanoma) was 90.1 µM. For the same compound, the GI50 (MALME-3M melanoma) was 27.7 µM, the TGI (MALME-3M melanoma) was 86.5 µM and the GI50 (MCF7 breast) was 17.6 µM. It also gave a TGI (MCF7 breast) of 57.9 µM, a GI50 (MDA-MB-231 breast) of 16 µM and a TGI (MDA-MB-231 breast) of 55.8 µM. It also gave a GI50 (MDA-MB-435) of 22.7 µM, a TGI (MDA-MB-435) of 71.4 µM and a GI50 (MOLT-4 leukemia) of 15.5 µM. The TGI (MOLT-4 leukemia) was 51.2 µM, the GI50 (NCI-H226 lung) was 23.6 µM and the TGI (NCI-H226 lung) was > 100 µM. The GI50 (NCI-H23 lung) was 34.4 µM and the TGI (NCI-H23 lung) was > 100 µM.
